These results are taken from US11351165B2, “Agent that increases the expression of the opioid kappa 1 for the treatment of cancer” (LDN Pharma Limited, priority 2017, dated 2022).

What all share (type): cell-based
Data set [1] deals with OPRK1. Kind of data set: Level of expression of OPRK1 by immunoblotting in A549 cells. Conditions: A549 lung cancer cells, 1 nM to 10 μM for 48 h. How it is done:
(§1) In order to determine the effect of 6-β-naltrexol or naltrexone on the level of expression of OPRK1, A549 lung cancer or HCT116 colon cancer cells were seeded onto 6-well plates at a density of 2×10^5 cell/well, and allowed to adhere overnight. Cells were then cultured in the presence of naltrexone or 6-β-naltrexol at concentrations of 1 nM, 10 nM, 100 nM, 1 μM or 10 μM for a further 48 h. Cells were then harvested and processed for measurements of OPRK1, opioid receptor-μ1 (OPRM1) and GAPDH using standard immunoblotting techniques.
(Immunoblotting shows a protein as a band on a membrane.)

Data set [2] deals with OPRK1. Kind of data set: Level of expression of OPRK1 by immunoblotting in HCT116 cells. Conditions: HCT116 colon cancer cells, 1 nM to 10 μM for 48 h. How it is done: as §1
Data set [3] deals with A549 cells. Kind of data set: Priming with 6-β-naltrexol, then chemotherapy agent; cell number and viability by trypan blue counting, A549. As to conditions: FIG. 2c. How it is done: (§2) The impact of combining 6-β-naltrexol with other chemotherapy agents was tested by culturing cells according to a treatment schedule that involved two phases of treatment. The first phase involved priming with 10 nM 6-β-naltrexol or 10 μM 6-β-naltrexol for 48 h, before treatment with another drug for a further 48 h. A549 and HCT116 cells were seeded into 6-well plates at a density of 2×10^5 cells/well and left to adhere overnight. Media was removed after 48 h, and cells were rinsed gently with drug-free medium. Fresh culture medium that contained gemcitabine (GEM) or oxaliplatin (OXP) was then added to the cells. The concentrations of the chemotherapy agents used were approximately ¼ IC50, as established previously [Liu W M, Fowler D W, Smith P, Dalgleish A G. Pre-treatment with chemotherapy can enhance the antigenicity and immunogenicity of tumours by promoting adaptive immune responses. Br J Cancer. 2010 Jan. 5; 102(1):115-23. doi: 10.1038/sj.bjc.6605465.]. Cells were then left for a further 48 h before assessment of cell number of viability by cell counting using trypan blue dye as a way of discriminating live and dead cells. Cytostasis was indicated by a reduction in cell number and no associated reduction in cell viability.

The subject of data set [4] is HCT116 cells. As to the kind of experiment: Priming with 6-β-naltrexol, then chemotherapy agent; cell number and viability by trypan blue counting, HCT116. Conditions: FIG. 2d. How it is done:
as §2

The mark [5] stands for this setting: 10 nM or 10 μM 6-β-naltrexol 48 h, then gemcitabine or oxaliplatin at approx. 1/4 IC50 for 48 h.
Where [6] appears, read: 10 nM or 10 μM 6-β-naltrexol alone (6BN-0).

With `Oc1ccc2c3c1OC1[C@H](O)CC[C@@]4(O)[C@@H](C2)N(CC2CC2)CC[C@]314` (stereo partly drawn) [6-β-naltrexol, 17-(Cyclopropylmethyl)-4,5-epoxymorphinan-3,6 beta,14-triol], the figures for the “level of expression of OPRK1” value in data set [1] and in data set [2] were “increase the level of expression of ORPK1” and “increases the level of expression of OPRK1”, respectively. Moreover, the “cytotoxic effect of chemotherapeutic agents after priming” value in data set [3] (setting [5]) and in data set [4] (setting [5]) was “cytotoxic effect of both chemotherapeutic agents is increased” each time. Besides, the “cytotoxicity of the agent alone” value in data set [3] (setting [6]) and in data set [4] (setting [6]) was “absence of any independent increase in cytotoxicity” each time.
Consider `O=C1CC[C@@]2(O)[C@H]3Cc4ccc(O)c5c4[C@@]2(CCN3CC2CC2)[C@H]1O5` [naltrexone, reference compound], for which the “level of expression of OPRK1” value in data set [1] was “increase the level of expression of ORPK1”; in data set [2], “down-regulates the level of expression of OPRK1”.
